Here are results for four molecules from patent US6334996B1, “Chelators that predominantely form a single stereoisomeric species upon coordination to a metal center” (Resolution Pharmaceuticals Inc., priority 1997, dated 2002).

Series [1] in a line: log D of the metal complexes. Format: physicochemical. The note with it: ^99mTc complex.
The conditions of series [2]: humans; cited from earlier work.

Consider `CN(C)CC(=O)N[C@@H](CO)C(=O)N[C@@H](CS)C(=O)NCC(=O)O` [^99mTc complex of dimethylglycine-serine-cysteine-glycine, metal not drawn], for which the logD in series [1] is -2.3. Take `CN(C)CC(=O)N[C@H](C(=O)N[C@@H](CS)C(=O)NCC(=O)O)C(C)(C)C` [^99mTc complex of dimethylglycine-t-butylglycine-cysteine-glycine, metal not drawn]: the logD in series [1] is -1.3. Turning to “Tc complex of 2,3-bis(mercaptoacetamide)propanoate [anti isomer of the Tc complex of 2,3-bis(mercaptoacetamide)propanoate (map)]”, the “excreted at 30 minutes” value in series [2] is given as 19%.

For the molecule “Tc complex of 2,3-bis(mercaptoacetamide)propanoate [syn isomer of the Tc complex of 2,3-bis(mercaptoacetamide)propanoate (map)]”, in series [2], the “excreted at 30 minutes” value is recorded as 58%.
